Reference: patent publication US20250197354A1, “SOLID STATE FORMS OF LX9211 AND SALTS THEREOF” (TEVA PHARMACEUTICALS INTERNATIONAL GMBH, priority 2022, published 2025)
Converted amounts (≈) assume the structure as drawn.

Tests used:
Format in all cases: physicochemical
[1] = Compression at a pressure of 1 ton, XRPD analysis; details: hydraulic press, 2 minutes
Method: (§1) Sample after being powdered in a mortar and pestle is applied directly on a silicon plate holder. The X-ray powder diffraction pattern was measured with Philips X'Pert PRO X-ray powder diffractometer, equipped with Cu irradiation source=1.54184 Å (Ångström), X'Celerator (2.022° 2θ) detector. Scanning parameters: angle range: 3-40 deg., step size 0.0167, time per step 37 s, continuous scan.
A sample of LX9211 dihydrogen phosphate form SI was subjected to a pressure of 1 ton (Perkin Elmer Hydraulic Press, set to 1 tons).
A sample of LX9211 dihydrogen phosphate form S3 was subjected to a pressure of 1 ton (Perkin Elmer Hydraulic Press, set to 1 tons).
A sample of LX9211 camsylate form K1 was subjected to a pressure of 1 ton (Perkin Elmer Hydraulic Press, set to 1 tons).
A sample of LX9211 hemihydrogen phosphate form S5 was subjected to a pressure of 1 ton (Perkin Elmer Hydraulic Press, set to 1 tons).

[2] = Solubility in water and pH 4.5 buffer, HPLC; details: 24 hours, 37±0.2° C.; for Solubility (mg/mL) pH 4.5: pH 4.5 buffer (USP)
Method: The solubilities of LX9211 dihydrogen phosphate forms S1 and S3 and LX9211 dihydrogen phosphate and urea, and LX9211 free base form A were determined in water and pH 4.5 buffer as follows:
About 80 mg of samples of the starting materials were weighed into 15 ml PP centrifuge tubes. 8 ml of appropriate buffer solution (pH 4.5 according to USP 35-NF 30 Buffer Solutions) or water was added. Tubes were stoppered and shaken at 160 rpm for 24 hours at 37±0.2° C. in an incubator shaker (Innova 4080, New Brunswick Scientific). Suspensions were filtered through 0.45 μm […] syringe filter (CHROMAFIL PTFE-45/25, Macherey-Nagel). Filtrates were sampled and concentration of the starting material was determined by HPLC according to corresponding standard.

[3] = Strong grinding and solvent drop grinding, XRPD analysis
Method: as §1
(§2) Samples of LX9211 dihydrogen phosphate form S1 were subjected to strong grinding and to solvent drop grinding in acetone, ethanol (96%), and 2-propanol). Grinding was carried out on the samples alone, or in the presence of the solvent. In these experiments, about 20 mg of the sample is placed in a mortar and ground with a pestle for 2 minutes. The solvent, when used, as added to the crystalline material before grinding, in a volume of 10 microliters. XRPD analysis performed on each of the samples after the grinding experiment, confirmed no change in the starting material (Table 4):
as §2, with “S3” for “S1”, “6):” for “4):”
as §2, with “camsylate” for “dihydrogen phosphate”, “K1” for “S1”, “8):” for “4):”
as §2, with “hemihydrogen” for “dihydrogen”, “S5” for “S1”, “10): […]” for “4):”

[4] = DVS water uptake; details: at least up to 90% RH
[5] = 2-propanol 10 microliters, solvent drop grinding for 2 minutes
[6] = Acetone 10 microliters, solvent drop grinding for 2 minutes
[7] = Ethanol (96%) 10 microliters, solvent drop grinding for 2 minutes
[8] = No solvent, strong grinding in mortar for 2 minutes

SMILES	XRPD analysis after pressure [1]	Solubility (mg/mL) pH 4.5 [2]	Solubility (mg/mL) water [2]	XRPD analysis results after grinding [3, 5]	XRPD analysis results after grinding [3, 6]	XRPD analysis results after grinding [3, 7]	XRPD analysis results after grinding [3, 8]	hygroscopicity (DVS) [4]	water uptake (DVS) [4]
CC(C)C[C@](C)(N)COc1ccc(-c2ccnc(C(F)F)c2)nc1C(F)F [LX9211 dihydrogen phosphate form S3]	no polymorphic conversion	13.8 mg/mL	25.0 mg/mL	No polymorphic conversion	No polymorphic conversion	No polymorphic conversion	No polymorphic conversion		
CC(C)C[C@](C)(N)COc1ccc(-c2ccnc(C(F)F)c2)nc1C(F)F [LX9211 dihydrogen phosphate and urea form U1]		16.4 mg/mL	24.4 mg/mL						
CC(C)C[C@](C)(N)COc1ccc(-c2ccnc(C(F)F)c2)nc1C(F)F [LX9211 camsylate form K1]	no polymorphic conversion			No polymorphic conversion	No polymorphic conversion	No polymorphic conversion	No polymorphic conversion	non-hygroscopic	less than 0.1%

The next lines start with the values.

XRPD analysis after pressure [1]	Solubility (mg/mL) pH 4.5 [2]	Solubility (mg/mL) water [2]	XRPD analysis results after grinding [3, 5]	XRPD analysis results after grinding [3, 6]	XRPD analysis results after grinding [3, 7]	XRPD analysis results after grinding [3, 8]	hygroscopicity (DVS) [4]	water uptake (DVS) [4]	SMILES
no polymorphic conversion	8.1 mg/mL	25.0 mg/mL	No polymorphic conversion	No polymorphic conversion	No polymorphic conversion	No polymorphic conversion			CC(C)C[C@](C)(N)COc1ccc(-c2ccnc(C(F)F)c2)nc1C(F)F [LX9211 dihydrogen phosphate form S1]
	9.7 mg/mL	0.1 mg/mL (≈ 259 µM)							CC(C)C[C@](C)(N)COc1ccc(-c2ccnc(C(F)F)c2)nc1C(F)F [LX9211 free base form A, (S)-1-((2′,6-bis(difluoromethyl)-[2,4′-bipyridin]-5-yl)oxy)-2,4-dimethylpentan-2-amine]
